Literature values, collected in US20070297991A1, “NEURAL CONDUIT AGENT DIS[…] SMOKING CESSATION AND OTHER APPLICATIONS” (MINU, L.L.C., priority 2006, published 2007).

Conditions: in vivo

CN1CCCC1c1cccnc1 (stereo not shown) [nicotine]
plasma half-life: approximately two
